Laboratory results: patent US20110098288A1, “SULFONAMIDES AS ZAP-70 INHIBITORS” (priority 2008, published 2011)
Structures can show the parent of a compound that is named as a salt.

Tests used:
Jurkat cells = test: Calcium release assay (Fluo-4 flow cytometry after anti-CD3 stimulation); assay type: cell-based; conditions: Homo sapiens, Jurkat cell line J77, anti-CD3 activation, read-out: IC50 (Calcium ion release in cells)
Method: Compounds of the present invention were tested in a Calcium release assay as described below.
The development of fluorescent probes makes it possible to measure the concentration of intracellular free Calcium ions in single living cells. Cells are first loaded with a cell-permeable Ca^2+-sensitive dye, then the test compound is added. Finally, cells are activated through the T cell receptor with an anti-CD3 antibody shortly before data acquisition on the flow cytometer. The release of Ca^2+ is measured as a function of time after cell stimulation. This protocol describes the flow cytometry method using the Fluo-3 and Fluo-4 dyes (Minta et al., 1989, J. Biol. Chem. 264(14):8171-8178) to measure the intracellular Ca^2+ concentration in Jurkat cells (see also June et al., 1997, Measurement of intracellular calcium ions by flow cytometry. In: Current Protocols in Cytometry (1997) Unit 9.8.1-9.8.19, John Wiley & Sons, Inc.).
In general, cells should be handled in the shortest time possible to assure their stability. Therefore the preparation of all materials in advance is highly recommended as well as using any incubation or centrifugation time to prepare the next steps (e.g. preparing compound dilution or starting the flow cytometer).
1) Prepare a work plan indicating the number of samples to be analyzed including controls. 2) Cell harvest: Centrifuge 50 to 100 ml of a Jurkat cell culture for 5 minutes at 1100 rpm. Discard the supernatant, pool the resuspended cell pellets in a single 50 ml Falcon tube, and fill up to 50 ml with PBS—CaCl2 (without FCS). Centrifuge again sample again. 3) Resuspend cell pellet with PBS—CaCl2 (without FCS) to achieve a concentration not lower than 10×10^6 cells/ml. Prepare an adequate dilution to evaluate the cell concentration and count the cells. 4) Separate the volume of cells needed to be loaded (for example […] for 20 samples) in a 50 ml Falcon tube. Fill up with PBS—CaCl2 to 900 μl for 107 cells. 5) Prepare in the dark a 1:1 mix of FLUO-4 (1 mM)+Pluronic F-127 (20%). 5 μl of Fluo-4 are needed per 107 cells. 6) Prepare a 1/10 dilution of this mix with PBS—CaCl2 (in the dark; for example 5 μl Fluo-4+5 μl F-127 completed to 100 μl). 7) Add the dye solution to the cells. […] 8) Incubate the sample for 30 minutes in a cell incubator (37° C., 5% CO2). Mix from time to time. 9) During this time prepare the adequate test compound dilution in PBS—CaCl2 (with 10% FCS). The solution should be 10 times more concentrated than the desired final concentration. Vortex each dilution. Prepare also the antibody dilutions: anti-CD3 (1/200) and GAM (1/25). 10) Label FACS tubes and distribute in the corresponding tube 30 μl of the compound dilution or only buffer for the control tubes. 11) After 30 minutes of incubation wash the cells twice in PBS—CaCl2 (with 10% FCS). During the washing steps make sure that the flow cytometer is already “ON” in order to warm the laser. 12) Resuspend the cell pellet in PBS—CaCl2 (with 10% FCS) at a concentration of 1.5×10^6 cells/ml. 13) Distribute 300 μl of cell suspension into the FACS tubes and mix gently. The compound incubation is starting. Keep samples at room temperature in the dark. 14) Open the settings of the cytometer. It is advised to have a template ready which is used for all measurements. Settings of the machine should also be the same from one experiment to the other which permits to evaluate the reproducibility of the cell preparation. 15) In Setup modus control your cell preparation on the cytometer. Cells should fit in the pre-defined gates. 16) During the compound incubation time, check also that cells are responding to the anti-CD3 activation as expected. Set a timer at 8 sec. Add 6 μl of anti-CD3 dilution (0.2 μg/ml final) and mix gently. Add 1 μl of GAM dilution (0.75 μg/ml final) and mix gently. Incubate the samples in water bath at 37° C. while starting timer. After 8 seconds of incubation, acquire data at medium speed for 200 seconds. […]

ZAP-70 = target: T1, ZAP-70 (Homo sapiens, UniProt P43403); test: ZAP-70 kinobeads assay; assay type: binding; conditions: competition with immobilized aminopyrido-pyrimidine ligand 24 in cell lysate; ZAP-70 detected by dot blot
T1 construct: endogenous in cells; host or cells: cell lysate
T1 sequence (P43403 1-619): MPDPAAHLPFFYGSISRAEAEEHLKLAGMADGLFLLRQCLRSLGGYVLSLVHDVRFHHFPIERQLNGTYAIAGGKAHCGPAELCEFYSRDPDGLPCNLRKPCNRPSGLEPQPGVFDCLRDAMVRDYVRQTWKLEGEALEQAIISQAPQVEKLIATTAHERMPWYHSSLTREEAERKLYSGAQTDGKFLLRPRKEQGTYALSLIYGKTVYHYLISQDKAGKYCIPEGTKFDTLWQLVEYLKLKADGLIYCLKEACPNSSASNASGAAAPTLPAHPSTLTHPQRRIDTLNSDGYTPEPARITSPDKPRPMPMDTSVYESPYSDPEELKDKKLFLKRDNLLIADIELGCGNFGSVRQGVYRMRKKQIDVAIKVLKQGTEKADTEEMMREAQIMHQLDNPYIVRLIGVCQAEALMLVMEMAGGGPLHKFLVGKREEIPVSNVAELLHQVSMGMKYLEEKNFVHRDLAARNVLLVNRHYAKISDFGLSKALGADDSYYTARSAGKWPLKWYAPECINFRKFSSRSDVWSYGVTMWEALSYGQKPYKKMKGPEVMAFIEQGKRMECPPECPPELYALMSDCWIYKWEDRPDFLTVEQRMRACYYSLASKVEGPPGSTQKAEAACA
Summary of the method: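 Competition binding format: compounds compete with a bead-immobilized aminopyrido-pyrimidine ligand for ZAP-70 in cell lysate. After bead separation and elution, bound ZAP-70 measured by antibody dot blot with infrared read-out.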

SMILES | IC50 (Jurkat cells) [nM] | IC50 (ZAP-70) [nM]
COc1ccc(Nc2ncc(Cl)c(Nc3ccccc3NS(C)(=O)=O)n2)cc1 [Example 139, N-(2-(5-chloro-2-(4-methoxyphenylamino)pyrimidin-4-ylamino)phenyl)methanesulfonamide hydrochloride] | < 100 | 100 to 1000
COc1ccc(Nc2nc(Nc3cc(OC)c(OC)c(OC)c3)ncc2Cl)c(NS(C)(=O)=O)c1 [Example 152, N-(2-(5-chloro-2-(3,4,5-trimethoxyphenylamino)pyrimidin-4-ylamino)-5-methoxyphenyl)methanesulfonamide] | < 100 | < 100
COc1cc(Nc2nccc(Nc3cccc(C)c3NS(C)(=O)=O)n2)cc(OCCN2CCCCC2)c1 [Example 177, N-(2-(2-(3-methoxy-5-(2-(piperidin-1-yl)ethoxy)phenylamino)pyrimidin-4-ylamino)-6-methylphenyl)methanesulfonamide formate salt] | 100 to 1000 | 100 to 1000
CS(=O)(=O)Nc1ccccc1Nc1nc(Nc2ccc(OCCCN3CCCC3)cc2)ncc1F [Example 92] | 100 to 1000 | 100 to 1000
Cc1nc2cc(Nc3ncc(F)c(Nc4ccccc4NS(C)(=O)=O)n3)ccc2s1 [Example 18, N-(2-(5-fluoro-2-(2-methylbenzo[d]thiazol-5-ylamino)pyrimidin-4-ylamino)phenyl)methanesulfonamide] | 100 to 1000 | 1000 to 10000
COc1ccc(Nc2ncc(F)c(Nc3ccccc3NS(C)(=O)=O)n2)cc1OC [Example 36, N-(2-(2-(3,4-dimethoxyphenylamino)-5-fluoropyrimidin-4-ylamino)phenyl)methanesulfonamide] | 100 to 1000 | 100 to 1000
COc1cc(Nc2ncc(F)c(Nc3ccccc3NS(C)(=O)=O)n2)cc(OC)c1OC [Example 1, N-(2-(5-fluoro-2-(3,4,5-trimethoxyphenylamino)pyrimidin-4-ylamino)phenyl)methanesulfonamide] | 100 to 1000 | 100 to 1000
COc1cc(Nc2ncc(F)c(Nc3cccc(C)c3NS(C)(=O)=O)n2)cc(OC(C)C)c1OC [Example 118, N-(2-(5-fluoro-2-(3-isopropoxy-4,5-dimethoxyphenylamino)pyrimidin-4-ylamino)-6-methylphenyl)methanesulfonamide] | 100 to 1000 | < 100
Cc1cc(C)cc(Nc2ncc(F)c(Nc3ccccc3N(C)S(C)(=O)=O)n2)c1 [Example 72, N-(2-(2-(3,5-dimethylphenylamino)-5-fluoropyrimidin-4-ylamino)phenyl)-N-methylmethanesulfonamide] | 100 to 1000 | 1000 to 10000
COc1cc(Nc2ncc(F)c(Nc3ccc(N4CCOCC4)cc3NS(C)(=O)=O)n2)cc(OC)c1OC [Example 171, N-(2-(5-fluoro-2-(3,4,5-trimethoxyphenylamino)pyrimidin-4-ylamino)-5-morpholinophenyl)methanesulfonamide] | 100 to 1000 | 100 to 1000
CS(=O)(=O)Nc1ccccc1Nc1nc(Nc2ccc(NCCN3CCCC3)cc2)ncc1F [Example 93, N-(2-(5-fluoro-2-(4-(2-pyrrolidin-1-yl)ethylamino)phenylamino)pyrimidin-4-ylamino)phenyl)methanesulfonamide formate] | 100 to 1000 | 100 to 1000
CS(=O)(=O)Nc1ccccc1Nc1nc(Nc2cccc(OCCN3CCOCC3)c2)ncc1F [Example 77, N-(2-(5-fluoro-2-(3-(2-morpholinoethoxy)phenylamino)pyrimidin-4-ylamino)phenyl)methanesulfonamide] | 100 to 1000 | 100 to 1000
COc1cc(Nc2ncc(F)c(Nc3cccc(C(C)C)c3NS(C)(=O)=O)n2)cc(OC)c1OC [Example 161, N-(2-(5-fluoro-2-(3,4,5-trimethoxyphenylamino)pyrimidin-4-ylamino)-6-isopropylphenyl)methanesulfonamide] | 100 to 1000 | 100 to 1000
COc1cc(Nc2ncc(C)c(Nc3ccccc3NS(C)(=O)=O)n2)cc(OC)c1OC [Example 66, N-(2-(5-methyl-2-(3,4,5-trimethoxyphenylamino)pyrimidin-4-ylamino)phenyl)methanesulfonamide] | 100 to 1000 | 100 to 1000
COc1cc(Nc2ncc(F)c(Nc3ccc(F)c(C)c3NS(C)(=O)=O)n2)cc(OC)c1OC [Example 162, N-(3-fluoro-6-(5-fluoro-2-(3,4,5-trimethoxyphenylamino)pyrimidin-4-ylamino)-2-methylphenyl)methanesulfonamide] | 100 to 1000 | 100 to 1000
CN(C)c1ccc(Nc2ncc(F)c(Nc3ccccc3NS(C)(=O)=O)n2)cc1 [Example 7, N-(2-(2-(4-(dimethylamino)phenylamino)-5-fluoropyrimidin-4-ylamino)phenyl)methanesulfonamide] | 100 to 1000 | 100 to 1000
CCN(CC)C(=O)COc1cccc(Nc2ncc(Cl)c(Nc3ccccc3NS(C)(=O)=O)n2)c1 [Example 150, 2-(3-(5-chloro-4-(2-(methylsulfonamido)phenylamino)pyrimidin-2-ylamino)phenoxy)-N,N-diethylacetamide] | < 100 | 100 to 1000
COc1ccc(Nc2nc(Nc3cc(OC)c(OC)c(OC)c3)ncc2Br)c(NS(C)(=O)=O)c1 [Example 178, N-(2-(5-bromo-2-(3,4,5-trimethoxyphenylamino)pyrimidin-4-ylamino)-5-methoxyphenyl)methanesulfonamide] | 100 to 1000 | < 100
CN1CCCC(COc2cccc(Nc3ncc(F)c(Nc4ccccc4NS(C)(=O)=O)n3)c2)C1 (stereo not shown) [Example 98, N-(2-(5-fluoro-2-(3-((1-methylpiperidin-3-yl)methoxy)phenylamino)pyrimidin-4-ylamino)phenyl)methanesulfonamide] | 100 to 1000 | < 100
COc1cc(Nc2ncc(F)c(Nc3cccc(NS(=O)(=O)c4cccnc4)c3)n2)cc(OC)c1OC [Example 58, N-(3-(5-fluoro-2-(3,4,5-trimethoxyphenylamino)pyrimidin-4-ylamino)phenyl)pyridine-3-sulfonamide] | 100 to 1000 | –
COc1cc(Nc2ncc(F)c(Nc3ccc(NS(=O)(=O)c4ccccc4)cc3)n2)cc(OC)c1OC [Example 44, N-(4-(5-fluoro-2-(3,4,5-trimethoxyphenylamino)pyrimidin-4-ylamino)phenyl)benzenesulfonamide] | 100 to 1000 | –
